Results taken from patent publication US6362134B1, “Herbicidal 1,2,4,6-thiatriazines” (Syngenta Investment Corporation, priority 1996, dated 2002).

Key:
Assay type in all cases: in vivo
Avena = test: Herbicidal action before emergence of the plants (pre-emergent action); conditions: 2000 g of active substance/ha, sprayed immediately after sowing, evaluated after 3 weeks, ratings scale of nine levels (1=complete damage, 9=no action)
Description: (§1) Monocotyledon and dicotyledon test plants are sown in standard soil in plastic pots. Immediately after sowing, the test substances are sprayed on (500 l of water/ha) in an aqueous suspension prepared from a 25% wettable powder (Example F3, b)), corresponding to a dosage of 2000 g of active substance/ha. The test plants are then grown under optimum conditions in a greenhouse. After a test period of 3 weeks, the test is evaluated with a ratings scale of nine levels (1=complete damage, 9=no action). Ratings of 1 to 4 (in particular 1 to 3) mean a good to very good herbicidal action.
(§2) Test plants: Avena, Setaria, Sinapis, Stellaria

Setaria = test: as above; set-up: key: 1=complete damage; 9=no action; Ratings of 1 to 4 (in particular 1 to 3) mean a good to very good herbicidal action; conditions: 2000 g of active substance/ha, sprayed immediately after sowing, evaluated after 3 weeks, ratings scale of nine levels
Description: as §1, §2

Sinapis [1] = test: as above; set-up: key: 1=complete damage; 9=no action; Ratings of 1 to 4 (in particular 1 to 3) mean a good to very good herbicidal action; conditions: 2000 g of active substance/ha, sprayed immediately after sowing, evaluated after 3 weeks, ratings scale of nine levels
Description: as §1, §2

Stellaria [2] = test: as above; set-up: key: 1=complete damage; 9=no action; Ratings of 1 to 4 (in particular 1 to 3) mean a good to very good herbicidal action; conditions: 2000 g of active substance/ha, sprayed immediately after sowing, evaluated after 3 weeks, ratings scale of nine levels
Description: as §1, §2

Sinapis [3] = test: Post-emergent herbicidal action (contact herbicide); set-up: key: 1=complete damage; 9=no action; Ratings of 1 to 4 (in particular 1 to 3) mean a good to very good herbicidal action; conditions: 2000 g of active substance/ha, sprayed in the 4- to 6-leaf stage, evaluated after about 18 days, ratings scale 1-9
Description: (§3) Monocotyledon and dicotyledon test plants are grown in plastic pots with standard soil in a greenhouse and, in the 4- to 6-leaf stage, are sprayed with an aqueous suspension of the test substances of the formula 1, prepared from a 25% wettable power (Example F3, b)), corresponding to a dosage of 2000 g of active substance/ha (500 l of water/ha). The test plants are then grown further in the greenhouse under optimum conditions. After a test period of about 18 days, the test is evaluated with a ratings scale of 9 levels (1=complete damage, 9=no action). Ratings of 1 to 4 (in particular 1 to 3) mean a good to very good herbicidal action.
(§4) Test plants: Sinapis, Stellaria

Stellaria [4] = test: as above; set-up: key: 1=complete damage; 9=no action; Ratings of 1 to 4 (in particular 1 to 3) mean a good to very good herbicidal action; conditions: 2000 g of active substance/ha, sprayed in the 4- to 6-leaf stage, evaluated after about 18 days, ratings scale 1-9
Description: as §3, §4

| Compound | Pre-emergent action, rating, Avena (Avena) | Pre-emergent action, rating, Setaria (Setaria) | Pre-emergent action, rating, Sinapis (Sinapis [1]) | Pre-emergent action, rating, Stellaria (Stellaria [2]) | Post-emergent action, rating, Sinapis (Sinapis [3]) | Post-emergent action, rating, Stellaria (Stellaria [4]) |
| --- | --- | --- | --- | --- | --- | --- |
| CC1CN(S2=NC(N)=NC(Oc3c(F)c(F)c(F)c(F)c3F)=N2)CCC(C)(C)C1 (single isomer, unassigned) [6.92] | 4 | 1 | 1 | 1 | 1 | 1 |
| CC1CN(S2=NC(N)=NC(Oc3c(F)c(F)c(F)c(F)c3F)=N2)CCC(C)(C)C1 (single isomer, unassigned) [6.93] | 2 | 1 | 1 | 1 | 1 | 1 |
| CC1(C)CC2CC(C)(CN2S2=NC(N)=NC(Oc3c(F)c(F)c(F)c(F)c3F)=N2)C1 (single isomer, unassigned) [6.153] | 4 | 3 | 1 | 1 | 1 | 2 |
| CC1(C)CC2CC(C)(CN2S2=NC(N)=NC(Oc3c(F)c(F)c(F)c(F)c3F)=N2)C1 (single isomer, unassigned) [6.154] | 4 | 1 | 1 | 1 | 1 | 1 |
| CC1(C)CCC(OS2=NC(N)=NC(Oc3c(F)c(F)c(F)c(F)c3F)=N2)CC1 (stereo not drawn) [5.52] | 4 | 2 | 1 | 1 | 2 | 2 |
| CC1CC(OS2=NC(N)=NC(Oc3c(F)c(F)c(F)c(F)c3F)=N2)CC(C)(C)C1 (stereo not drawn) [5.78] | 3 | 2 | 2 | 1 | 2 | 3 |
| CC1CC(C)CC(OS2=NC(N)=NC(Oc3c(F)c(F)c(F)c(F)c3F)=N2)C1 (stereo not drawn) [5.120] | 4 | 2 | 1 | 1 | 2 | 3 |
| CC(C)(C)C1CCC(OS2=NC(N)=NC(Oc3c(F)c(F)c(F)c(F)c3F)=N2)CC1 (stereo not drawn) [5.127] | 4 | 2 | 1 | 1 | 2 | 3 |
| CC1(C)CCCC(OS2=NC(N)=NC(Oc3c(F)c(F)c(F)c(F)c3F)=N2)C1 (stereo not drawn) [5.131] | 4 | 2 | 1 | 1 | 1 | 3 |
| NC1=NC(Oc2c(F)c(F)c(F)c(F)c2F)=NS(OC2CCCCCCC2)=N1 (stereo not drawn) [5.176] | 4 | 2 | 1 | 1 | 2 | 2 |
| C[Si](C)(C)COS1=NC(N)=NC(Oc2c(F)c(F)c(F)c(F)c2F)=N1 (stereo not drawn) [5.321] | 3 | 1 | 1 | 1 | 2 | 2 |
| CC1CCC(OS2=NC(N)=NC(Oc3c(F)c(F)c(F)c(F)c3F)=N2)CC1 (stereo not drawn) [5.326] | 4 | 4 | 1 | 1 | 2 | 4 |
| CC(OS1=NC(N)=NC(Oc2c(F)c(F)c(F)c(F)c2F)=N1)[Si](C)(C)C (stereo not drawn) [5.329] | 2 | 1 | 1 | 1 | 1 | 5 |
| CCCC(CC)OS1=NC(N)=NC(Oc2c(F)c(F)c(F)c(F)c2F)=N1 (stereo not drawn) [5.332] | 3 | 1 | 1 | 1 | 1 | 2 |
| CCC1CCCCN1S1=NC(N)=NC(Oc2c(F)c(F)c(F)c(F)c2F)=N1 (stereo not drawn) [6.30] | 3 | 2 | 1 | 1 | 2 | 3 |
| CC1(C)CCCN(S2=NC(N)=NC(Oc3c(F)c(F)c(F)c(F)c3F)=N2)C1 (stereo not drawn) [6.34] | 3 | 1 | 1 | 1 | 2 | 2 |
| NC1=NC(Oc2c(F)c(F)c(F)c(F)c2F)=NS(N2CCCC3CCCCC32)=N1 (stereo not drawn) [6.37] | 3 | 2 | 1 | 1 | 3 | 2 |
| NC1=NS(N2CCCCCC2)=NC(Oc2c(F)c(F)cc(F)c2F)=N1 (stereo not drawn) [6.89] | 2 | 2 | 1 | 1 | 2 | 3 |
| CC1CC(C)CN(S2=NC(N)=NC(Oc3c(F)c(F)c(F)c(F)c3F)=N2)C1 (stereo not drawn) [6.124] | 3 | 1 | 1 | 1 | 2 | 3 |
| CC1(C)CCCN(S2=NC(N)=NC(Oc3cc(F)ccc3F)=N2)C1 (stereo not drawn) [6.129] | 4 | 4 | 1 | 1 | 2 | 3 |
